In ChEMBL document CHEMBL3352267, “The design and implementation of a generic lipopeptide scanning platform to enable the identification of 'locally acting' agonists for the apelin receptor” (Bioorg Med Chem Lett, 2014):
Active and inactive are the calls of the source. The rule behind the calls is not given here. Residues, ends and D or L forms follow the SMILES beside them. *: point of attachment. Palmitoyl = CCCCCCCCCCCCCCCC(=O)*

Legend:
[1] = molecular target: Sphingosine 1-phosphate receptor Edg-5/Sphingosine 1-phosphate receptor Edg-3 (Homo sapiens) (UniProt O95136+Q99500); test: Agonist activity at S1P2/3 receptor in HEK293 cells assessed as inhibition of forskolin-induced cAMP level after 1 hr by alphascreen immunoassay; format: functional, cell-based
Apelin receptor = molecular target: T1, Apelin receptor (Homo sapiens, UniProt P35414); test: Agonist activity at APJ receptor in HEK293 cells assessed as inhibition of forskolin-induced cAMP level incubated for 5 mins prior to forskolin challenge measured after 30 mins by TR-FRET assay; format: functional, cell-based
T1 sequence (P35414 whole entry): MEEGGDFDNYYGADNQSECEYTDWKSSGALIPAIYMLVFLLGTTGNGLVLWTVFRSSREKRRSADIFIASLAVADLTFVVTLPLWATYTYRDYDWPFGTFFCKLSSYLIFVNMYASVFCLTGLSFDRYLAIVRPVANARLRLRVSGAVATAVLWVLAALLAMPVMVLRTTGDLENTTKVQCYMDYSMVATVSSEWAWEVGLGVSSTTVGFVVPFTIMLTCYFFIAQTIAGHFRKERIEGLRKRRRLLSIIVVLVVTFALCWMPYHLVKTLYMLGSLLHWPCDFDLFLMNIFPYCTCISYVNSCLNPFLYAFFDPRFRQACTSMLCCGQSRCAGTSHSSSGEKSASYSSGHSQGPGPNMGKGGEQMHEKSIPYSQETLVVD

[2] = molecular target: T2, Apelin receptor (Homo sapiens) (UniProt P35414); test: Agonist activity at APJ receptor in HEK293 cells assessed as inhibition of forskolin-induced cAMP level incubated for 5 mins prior to forskolin challenge measured after 30 mins by TR-FRET assay relative to [pyr1]-apelin-13; format: functional, cell-based
T2 sequence (whole entry): T1 sequence (P35414 whole entry)

Thromboxane A2 receptor [3] = molecular target: T3, Thromboxane A2 receptor (Homo sapiens, UniProt P21731); test: Antagonist activity at thromboxane A2 receptor (unknown origin) expressed in HEK293-EBNA cells after 15 mins by calcium flux/FLIPR assay in presence of U-46619; format: functional, cell-based
T3 sequence (P21731 whole entry): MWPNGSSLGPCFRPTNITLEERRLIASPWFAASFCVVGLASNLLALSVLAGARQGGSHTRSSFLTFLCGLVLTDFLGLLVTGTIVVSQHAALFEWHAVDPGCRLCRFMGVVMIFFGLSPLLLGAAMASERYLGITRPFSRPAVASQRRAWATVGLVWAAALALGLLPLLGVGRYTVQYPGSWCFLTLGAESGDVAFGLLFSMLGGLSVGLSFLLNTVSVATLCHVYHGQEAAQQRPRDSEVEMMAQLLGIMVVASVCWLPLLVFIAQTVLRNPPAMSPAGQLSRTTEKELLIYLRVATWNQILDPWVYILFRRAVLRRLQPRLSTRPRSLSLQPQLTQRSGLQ

D(1A) dopamine receptor [4] = molecular target: T4, D(1A) dopamine receptor (Homo sapiens, UniProt P21728); test: Agonist activity at D1A receptor (unknown origin) expressed in CHOK1 cells by HTRF cAMP immunoassay; format: functional, cell-based, CHO-K1
T4 sequence (P21728 whole entry): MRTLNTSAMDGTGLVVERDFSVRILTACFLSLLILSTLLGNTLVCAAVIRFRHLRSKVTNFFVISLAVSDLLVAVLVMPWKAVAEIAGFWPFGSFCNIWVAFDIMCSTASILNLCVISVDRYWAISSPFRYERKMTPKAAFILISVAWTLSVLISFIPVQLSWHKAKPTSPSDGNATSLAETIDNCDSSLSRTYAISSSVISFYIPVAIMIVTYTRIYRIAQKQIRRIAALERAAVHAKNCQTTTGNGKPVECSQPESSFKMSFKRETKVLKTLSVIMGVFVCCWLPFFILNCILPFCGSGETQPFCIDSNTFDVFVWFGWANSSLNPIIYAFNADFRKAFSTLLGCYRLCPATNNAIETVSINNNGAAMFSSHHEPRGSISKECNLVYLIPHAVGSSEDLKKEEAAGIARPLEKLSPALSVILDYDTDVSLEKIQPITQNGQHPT

[5] = molecular target: T5, 5-hydroxytryptamine receptor 2A (Homo sapiens, UniProt P28223); test: Antagonist activity at 5HT2A receptor (unknown origin) expressed in CHOK1 cells after 15 mins by calcium flux/FLIPR assay in presence of 5HT; format: functional, cell-based, CHO-K1
T5 sequence (P28223 whole entry): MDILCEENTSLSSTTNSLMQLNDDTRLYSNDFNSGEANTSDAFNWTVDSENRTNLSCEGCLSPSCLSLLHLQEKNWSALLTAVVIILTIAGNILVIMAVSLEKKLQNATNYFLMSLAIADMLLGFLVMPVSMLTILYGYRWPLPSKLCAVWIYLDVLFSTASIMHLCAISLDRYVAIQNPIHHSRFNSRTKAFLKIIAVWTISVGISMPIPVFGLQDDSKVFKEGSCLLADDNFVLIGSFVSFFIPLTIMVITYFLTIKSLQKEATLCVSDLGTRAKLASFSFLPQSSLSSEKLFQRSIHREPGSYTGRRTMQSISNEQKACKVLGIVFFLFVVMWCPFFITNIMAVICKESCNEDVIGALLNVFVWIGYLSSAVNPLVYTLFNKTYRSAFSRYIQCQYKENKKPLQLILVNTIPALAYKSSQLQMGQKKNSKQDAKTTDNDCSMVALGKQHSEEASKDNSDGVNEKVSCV

[6] = molecular target: T6, 5-hydroxytryptamine receptor 2B (Homo sapiens, UniProt P41595); test: Agonist activity at 5HT2B receptor (unknown origin) expressed in CHOK1 cells after 3 mins by calcium flux/FLIPR assay; format: functional, cell-based, CHO-K1
T6 sequence (P41595 whole entry): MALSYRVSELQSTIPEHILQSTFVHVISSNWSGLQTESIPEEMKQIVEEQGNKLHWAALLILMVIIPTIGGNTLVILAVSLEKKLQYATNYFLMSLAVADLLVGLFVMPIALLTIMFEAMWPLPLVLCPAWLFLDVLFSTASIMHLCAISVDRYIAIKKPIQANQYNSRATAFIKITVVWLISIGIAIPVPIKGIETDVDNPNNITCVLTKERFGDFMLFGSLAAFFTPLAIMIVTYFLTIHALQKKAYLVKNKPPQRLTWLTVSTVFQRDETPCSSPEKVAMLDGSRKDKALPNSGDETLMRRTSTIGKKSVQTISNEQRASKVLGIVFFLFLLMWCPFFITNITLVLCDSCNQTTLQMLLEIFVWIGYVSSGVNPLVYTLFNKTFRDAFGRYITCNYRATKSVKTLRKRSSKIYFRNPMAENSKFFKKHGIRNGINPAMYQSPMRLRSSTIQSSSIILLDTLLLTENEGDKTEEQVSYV

[7] = molecular target: T6, 5-hydroxytryptamine receptor 2B; test: Antagonist activity at 5HT2B receptor (unknown origin) expressed in CHOK1 cells after 15 mins by calcium flux/FLIPR assay in presence of BW723C86; format: functional, cell-based, CHO-K1
Cannabinoid receptor 1 [8] = molecular target: T7, Cannabinoid receptor 1 (Homo sapiens, UniProt P21554); test: Antagonist activity at CB1 receptor (unknown origin) expressed in rat CHEM-1 cells after 15 mins by calcium flux/FLIPR assay in presence of CP55940; format: functional, cell-based
T7 sequence (P21554 whole entry): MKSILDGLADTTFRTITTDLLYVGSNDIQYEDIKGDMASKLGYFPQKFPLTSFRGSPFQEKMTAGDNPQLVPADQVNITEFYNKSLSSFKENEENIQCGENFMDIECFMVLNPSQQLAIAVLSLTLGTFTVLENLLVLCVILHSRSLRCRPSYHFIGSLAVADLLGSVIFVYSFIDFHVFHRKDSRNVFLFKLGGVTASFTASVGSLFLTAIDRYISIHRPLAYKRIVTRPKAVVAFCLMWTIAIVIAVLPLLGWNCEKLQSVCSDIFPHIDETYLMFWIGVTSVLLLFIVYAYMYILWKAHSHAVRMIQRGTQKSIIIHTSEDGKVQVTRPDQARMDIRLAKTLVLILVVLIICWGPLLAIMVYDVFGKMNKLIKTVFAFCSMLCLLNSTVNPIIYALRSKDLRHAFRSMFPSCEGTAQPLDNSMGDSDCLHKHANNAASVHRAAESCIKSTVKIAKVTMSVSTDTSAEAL

[9] = molecular target: T8, D(4) dopamine receptor (Homo sapiens) (UniProt P21917); test: Agonist activity at human D4 receptor expressed in Chem-5 cells assessed as calcium mobilization by FLIPR assay; format: functional, cell-based
T8 sequence (whole entry): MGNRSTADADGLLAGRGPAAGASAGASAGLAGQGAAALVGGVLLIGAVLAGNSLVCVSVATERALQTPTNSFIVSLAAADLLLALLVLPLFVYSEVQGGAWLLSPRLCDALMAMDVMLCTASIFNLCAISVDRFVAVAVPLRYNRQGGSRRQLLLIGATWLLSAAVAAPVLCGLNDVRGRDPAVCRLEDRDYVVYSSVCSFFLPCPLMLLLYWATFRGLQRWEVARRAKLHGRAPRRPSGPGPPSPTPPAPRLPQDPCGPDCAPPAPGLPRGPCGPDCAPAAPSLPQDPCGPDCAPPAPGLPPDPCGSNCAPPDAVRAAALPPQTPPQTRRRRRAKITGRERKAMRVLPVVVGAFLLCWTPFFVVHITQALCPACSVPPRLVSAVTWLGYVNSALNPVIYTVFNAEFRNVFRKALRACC

Thromboxane A2 receptor [10] = molecular target: T3, Thromboxane A2 receptor; test: Agonist activity at thromboxane A2 receptor (unknown origin) expressed in HEK293-EBNA cells after 3 mins by calcium flux/FLIPR assay; format: functional, cell-based
[11] = molecular target: Beta-2 adrenergic receptor (Homo sapiens, UniProt P07550); test: Agonist activity at beta-2 adrenergic receptor (unknown origin) expressed in CHOK1 cells by HTRF cAMP immunoassay; format: functional, cell-based, CHO-K1
Chain of Beta-2 adrenergic receptor (P07550 whole entry): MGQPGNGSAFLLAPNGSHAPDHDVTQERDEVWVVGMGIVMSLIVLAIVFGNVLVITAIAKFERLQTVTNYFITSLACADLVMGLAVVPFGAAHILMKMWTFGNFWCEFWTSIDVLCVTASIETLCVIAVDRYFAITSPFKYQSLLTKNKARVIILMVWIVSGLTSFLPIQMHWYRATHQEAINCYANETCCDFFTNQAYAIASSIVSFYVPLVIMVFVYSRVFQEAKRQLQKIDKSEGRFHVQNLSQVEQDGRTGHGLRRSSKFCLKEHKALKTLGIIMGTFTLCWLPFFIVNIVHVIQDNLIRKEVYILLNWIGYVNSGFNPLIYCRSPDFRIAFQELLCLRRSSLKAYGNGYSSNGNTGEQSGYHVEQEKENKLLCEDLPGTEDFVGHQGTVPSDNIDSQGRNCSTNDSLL

[12] = molecular target: T9, Alpha-1A adrenergic receptor (Homo sapiens, UniProt P35348); test: Antagonist activity at alpha-1A adrenergic receptor (unknown origin) expressed in CHOK1 cells after 15 mins by calcium flux/FLIPR assay in presence of A-61603; format: functional, cell-based, CHO-K1
T9 sequence (P35348 whole entry): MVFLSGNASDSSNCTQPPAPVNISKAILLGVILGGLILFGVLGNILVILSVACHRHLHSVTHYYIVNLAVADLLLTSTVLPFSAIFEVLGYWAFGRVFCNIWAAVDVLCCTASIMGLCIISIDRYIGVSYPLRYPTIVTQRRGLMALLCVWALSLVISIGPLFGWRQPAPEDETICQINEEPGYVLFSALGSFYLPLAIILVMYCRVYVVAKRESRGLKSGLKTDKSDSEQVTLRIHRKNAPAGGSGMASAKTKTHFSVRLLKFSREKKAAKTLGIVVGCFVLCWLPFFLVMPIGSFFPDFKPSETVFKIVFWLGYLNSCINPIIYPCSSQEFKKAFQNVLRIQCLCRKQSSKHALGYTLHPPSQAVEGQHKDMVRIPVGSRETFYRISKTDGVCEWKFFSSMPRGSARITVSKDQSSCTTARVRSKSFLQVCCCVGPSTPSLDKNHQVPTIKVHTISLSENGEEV

D(1A) dopamine receptor [13] = molecular target: T4, D(1A) dopamine receptor; test: Antagonist activity at D1A receptor (unknown origin) expressed in CHOK1 cells after 5 mins by HTRF cAMP immunoassay in presence of cAMP/SKF38393; format: functional, cell-based, CHO-K1
[14] = molecular target: T10, 5-hydroxytryptamine receptor 1A (Homo sapiens, UniProt P08908); test: Agonist activity at 5HT1A receptor (unknown origin) expressed in HeLa cells after 3 mins by calcium flux/FLIPR assay; format: functional, cell-based
T10 sequence (P08908 whole entry): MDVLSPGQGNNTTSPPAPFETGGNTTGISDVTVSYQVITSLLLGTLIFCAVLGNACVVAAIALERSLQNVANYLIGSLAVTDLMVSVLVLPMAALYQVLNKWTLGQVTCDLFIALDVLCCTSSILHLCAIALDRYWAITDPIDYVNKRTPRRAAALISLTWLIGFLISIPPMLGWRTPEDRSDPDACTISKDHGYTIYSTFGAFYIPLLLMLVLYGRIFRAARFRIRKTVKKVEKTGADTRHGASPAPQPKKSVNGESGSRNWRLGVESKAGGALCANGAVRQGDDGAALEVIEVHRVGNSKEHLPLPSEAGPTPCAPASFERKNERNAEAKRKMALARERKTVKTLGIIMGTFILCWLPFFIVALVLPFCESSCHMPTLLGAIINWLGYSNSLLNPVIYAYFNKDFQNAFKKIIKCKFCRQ

[15] = molecular target: T9, Alpha-1A adrenergic receptor; test: Agonist activity at alpha-1A adrenergic receptor (unknown origin) expressed in CHOK1 cells after 3 mins by calcium flux/FLIPR assay; format: functional, cell-based, CHO-K1
[16] = molecular target: T11, Muscarinic acetylcholine receptor M2 (Homo sapiens, UniProt P08172); test: Antagonist activity at muscarinic acetylcholine receptor M2 (unknown origin) expressed in CHOK1 cells after 15 mins by calcium flux/FLIPR assay in presence of acetylcholine; format: functional, cell-based, CHO-K1
T11 sequence (P08172 whole entry): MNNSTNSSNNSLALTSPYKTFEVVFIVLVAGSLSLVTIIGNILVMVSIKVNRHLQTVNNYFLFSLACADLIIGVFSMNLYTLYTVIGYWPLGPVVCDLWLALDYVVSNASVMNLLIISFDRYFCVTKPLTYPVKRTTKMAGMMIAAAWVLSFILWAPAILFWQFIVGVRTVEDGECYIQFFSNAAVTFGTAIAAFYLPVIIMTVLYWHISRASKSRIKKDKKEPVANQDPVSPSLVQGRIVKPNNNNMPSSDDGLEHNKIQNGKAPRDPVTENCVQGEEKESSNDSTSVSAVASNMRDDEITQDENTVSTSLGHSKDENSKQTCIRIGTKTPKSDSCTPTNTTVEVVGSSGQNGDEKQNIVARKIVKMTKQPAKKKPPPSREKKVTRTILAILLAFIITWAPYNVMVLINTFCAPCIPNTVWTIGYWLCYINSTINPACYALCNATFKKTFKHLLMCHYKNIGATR

[17] = molecular target: T5, 5-hydroxytryptamine receptor 2A; test: Agonist activity at 5HT2A receptor (unknown origin) expressed in CHOK1 cells after 3 mins by calcium flux/FLIPR assay; format: functional, cell-based, CHO-K1
[18] = molecular target: T11, Muscarinic acetylcholine receptor M2; test: Agonist activity at muscarinic acetylcholine receptor M2 (unknown origin) expressed in CHOK1 cells after 3 mins by calcium flux/FLIPR assay; format: functional, cell-based, CHO-K1
Cannabinoid receptor 1 [19] = molecular target: T7, Cannabinoid receptor 1; test: Agonist activity at CB1 receptor (unknown origin) expressed in rat CHEM-1 cells after 3 mins by calcium flux/FLIPR assay; format: functional, cell-based
[20] = molecular target: T10, 5-hydroxytryptamine receptor 1A; test: Antagonist activity at 5HT1A receptor (unknown origin) expressed in HeLa cells after 15 mins by calcium flux/FLIPR assay in presence of R-(+)-8-OH-DPAT; format: functional, cell-based

With `CCCCCCCCCCCCC/C=C/[C@@H](O)[C@@H](N)COP(=O)(O)O` the Activity [1] was “Active”.
`CCCCCCCCCCCCCCCC(=O)N[C@H](C(=O)N[C@H](C(=O)N[C@@H](CC(C)C)C(=O)N1CCC[C@H]1C(=O)N[C@@H](CC(C)C)C(=O)N[C@@H](Cc1c[nH]c2ccccc12)C(=O)N[C@@H](C)C(=O)N[C@@H](C)C(=O)N[C@@H](Cc1ccc(O)cc1)C(=O)N[C@H](C(=O)N[C@@H](Cc1ccc(O)cc1)C(=O)N[C@@H](CCCNC(=N)N)C(N)=O)[C@@H](C)O)[C@@H](C)O)C(C)C` (Palmitoyl-VTLPLWAAYTYR-NH2) showed an EC50 (Apelin receptor) of 0.0215 µM and a %max [2] of 53.6%.
`CCCCCCCCCCCCCCCC(=O)N[C@H](C(=O)N[C@H](C(=O)N[C@@H](CC(C)C)C(=O)N1CCC[C@H]1C(=O)N[C@@H](CC(C)C)C(=O)N[C@@H](Cc1c[nH]c2ccccc12)C(=O)N[C@@H](C)C(=O)N[C@H](C(=O)N[C@@H](C)C(=O)N[C@H](C(=O)N[C@@H](Cc1ccc(O)cc1)C(=O)N[C@@H](CCCNC(=N)N)C(N)=O)[C@@H](C)O)[C@@H](C)O)[C@@H](C)O)C(C)C` (Palmitoyl-VTLPLWATATYR-NH2) was tested, and the EC50 (Apelin receptor) was 0.0957 µM and the %max [2] was 84.3%.
`CCCCCCCCCCCCCCCC(=O)N[C@H](C(=O)N[C@H](C(=O)N[C@@H](CC(C)C)C(=O)N1CCC[C@H]1C(=O)N[C@@H](CC(C)C)C(=O)N[C@@H](Cc1c[nH]c2ccccc12)C(=O)N[C@@H](C)C(=O)N[C@H](C(=O)N[C@@H](Cc1ccc(O)cc1)C(=O)N[C@H](C(=O)N[C@@H](C)C(=O)N[C@@H](CCCNC(=N)N)C(N)=O)[C@@H](C)O)[C@@H](C)O)[C@@H](C)O)C(C)C` (Palmitoyl-VTLPLWATYTAR-NH2) was tested, and the EC50 (Apelin receptor) was 0.0027 µM and the %max [2] was 62.5%.
For `CCCCCCCCCCCCCCCC(=O)N[C@H](C(=O)N[C@H](C(=O)N[C@@H](CC(C)C)C(=O)N1CCC[C@H]1C(=O)N[C@@H](CC(C)C)C(=O)N[C@@H](Cc1c[nH]c2ccccc12)C(=O)N[C@@H](C)C(=O)N[C@H](C(=O)N[C@@H](Cc1ccc(O)cc1)C(=O)N[C@H](C(=O)N[C@@H](Cc1ccc(O)cc1)C(=O)N[C@@H](CCCNC(=N)N)C(N)=O)[C@@H](C)O)[C@@H](C)O)[C@@H](C)O)C(C)C` (Palmitoyl-VTLPLWATYTYR-NH2), the IC50 (Thromboxane A2 receptor [3]) was > 30 µM, the EC50 (D(1A) dopamine receptor [4]) was > 30 µM and the IC50 [5] was > 30 µM. The EC50 [6] was > 30 µM, the IC50 [7] was > 30 µM and the IC50 (Cannabinoid receptor 1 [8]) was > 30 µM. For the same molecule, the Activity [9] was “inactive”, the EC50 (Thromboxane A2 receptor [10]) was > 30 µM and the Activity [1] was “inactive”. The EC50 [11] was > 30 µM, the IC50 [12] was > 30 µM and the IC50 (D(1A) dopamine receptor [13]) was > 30 µM. The EC50 [14] was > 30 µM, the EC50 [15] was > 30 µM and the IC50 [16] was > 30 µM. The EC50 [17] was > 30 µM, the EC50 [18] was > 30 µM and the EC50 (Cannabinoid receptor 1 [19]) was > 30 µM. For the same molecule, the IC50 [20] was > 30 µM.
